Results published in ChEMBL document CHEMBL5725668, “Cyclobutane containing carboxylic acid GPR120 modulators” (2018).

Test: GPR120 pERK AlphaScreen SureFire Assay: The human and mouse GPR120-mediated intracellular phosphorylated ERK assays were established using CHOA12 cells stably transfected with the short form of human or mouse GPR120 receptor. Cells were cultured in growth medium consisting of F-12 media (Invitrogen Cat. #11765) with 5% Charcoal/Dextran FBS (Invitrogen Cat. #12676-029), 500 μg/mL GENETICIN® (Life Technologies Cat. #10131-027) and 250 μg/mL Zeocin (Invitrogen Cat. #R250-01). Cells were cryo preserved at a concentration of 2×10^7 cells/mL, in 90% Charcoal/Dextran FBS and 10% DMSO, and frozen in liquid nitrogen at a low passage number.For the pERK assay, 2×10^7 cells/mL cryopreserved human and mouse cells were thawed rapidly in a 37° C. water bath and added to a T-225 flask containing 50 mL growth medium. The flasks were placed in a tissue culture incubator overnight (37° C., 5% CO2). The next day, cells were harvested with trypsin (Gibco Cat. #25300-054), resuspended in serum-containing growth medium and counted using a Cellometer and volume adjusted to a concentration of 0.6×10^6 cells/mL. Cells were plated into 384-well clear bottom tissue culture plates (BD Cat. #353962) at 50 μL/well, for a density of 30,000 cells/well using a MULTIDROP® and incubated for 16-18 hours (overnight) at 37° C. with 5% CO2. The next day, cells were serum starved in 30 μL of F-12 media without any serum or antibiotics for 2 hours at 37° C.Test compounds were 3-fold, 11-point serially diluted in DMSO in a REMP assay plate (Matrix Cat. #4307) by Tecan and 5 μL was transferred into an ECHO source plate (Labcyte Cat. #LC-0200). Cells were then stimulated with 50 nL of compound dilutions using ECHO liquid handler for 7 minutes at 37° C. Compounds ranged from final assay concentrations of 33.33 μM to 0.56 nM.The media was then dumped and cells lysed with 20 μL of 1× Lysis buffer from the AlphaScreen SureFire Phospho-ERK 1/2 Kit (Perkin Elmer Cat. #6760617M). The lysis buffer was diluted 5-fold with water before use. The plate was agitated on a shaker for 10 minutes after which 2 μL was transferred into a 384-well white proxiplate (Perkin Elmer Cat. #6008289). The SureFire assay reagent mix was prepared by mixing 60 parts Reaction Buffer, 10 parts Activation Buffer, 1 part Donor Beads, 1 part Acceptor Beads (Perkin Elmer Cat. #TGRES10K). 3.5 μL/well of this reagent mix was manually added to the proxiplate with a multichannel pipettor. Plates were spun down at 1000 rpm for 2 minutes, followed by light-protected incubation at room temperature for 2 hours. The plates were read on the Alpha-technology compatible Envision multilabel plate reader using AlphaScreen protocol according to manufacturer's specifications. […]
Assay type: cell-based

**Q.** Which EC50 does the source give for `O=C(O)CO[C@H]1C[C@@H](c2ccc(-c3ccccc3Oc3ccccc3)cc2)C1` here?
**A.** 1.46 µM

**Q.** For `CC(C)Oc1cc(-c2ccc([C@H]3C[C@@H](OCC(=O)O)C3)cc2)c(F)cn1`, which EC50 is on record?
**A.** 2.07 µM

**Q.** Which EC50 does the source give for `O=C(O)CO[C@H]1C[C@@H](c2ccc(-c3cc(Oc4ccc(F)cc4)cc(F)c3F)cc2)C1` here?
**A.** 0.59 µM

**Q.** Which EC50 does the source give for `Cc1nc(C)c(-c2ccc([C@H]3C[C@@H](OCC(=O)O)C3)cc2)s1` here?
**A.** 3.46 µM
